{"source": "patent US7041851B2", "about": "“Fluorinated phenyl thiophenyl derivatives and their use for imaging serotonin transporters” (The Trustees of the University of Pennsylvania, priority 2002, dated 2006)", "assay": "Organ distribution and brain regional uptake of [18F]ACF in rats", "note": "Where “and” joins values, the source holds several entries; their conditions need not be identical. Equal entries are not always repeated.", "data": [{"smiles": "CN(C)Cc1ccccc1Sc1cc([18F])c(Cl)cc1N", "note": "[[^18F]ACF]", "values": [{"measurement": "Organ distribution: Brain", "setting": "30 min after iv injection", "value": "1.28 ± 0.14", "unit": "% dose/organ"}, {"measurement": "Organ distribution: Heart", "setting": "30 min after iv injection", "value": "0.18 ± 0.02", "unit": "% dose/organ"}, {"measurement": "Organ distribution: Kidney", "setting": "30 min after iv injection", "value": "2.64 ± 0.79", "unit": "% dose/organ"}, {"measurement": "Organ distribution: Liver", "setting": "30 min after iv injection", "value": "15.20 ± 1.20", "unit": "% dose/organ"}, {"measurement": "Organ distribution: Lung", "setting": "30 min after iv injection", "value": "1.76 ± 0.20", "unit": "% dose/organ"}, {"measurement": "Organ distribution: Muscle", "setting": "30 min after iv injection", "value": "10.70 ± 1.68", "unit": "% dose/organ"}, {"measurement": "Organ distribution: Skin", "setting": "30 min after iv injection", "value": "6.51 ± 0.66", "unit": "% dose/organ"}, {"measurement": "Organ distribution: Spleen", "setting": "30 min after iv injection", "value": "0.29 ± 0.09", "unit": "% dose/organ"}, {"measurement": "Ratio to Cerebellum: Cerebellum", "setting": "30 min after iv injection", "value": "1.00 ± 0.00"}, {"measurement": "Ratio to Cerebellum: Cortex", "setting": "30 min after iv injection", "value": "1.69 ± 0.20"}, {"measurement": "Ratio to Cerebellum: Hippocampus", "setting": "30 min after iv injection", "value": "1.89 ± 0.24"}, {"measurement": "Ratio to Cerebellum: Hypothalamus", "setting": "30 min after iv injection", "value": "2.29 ± 0.06"}, {"measurement": "Ratio to Cerebellum: Remainder", "setting": "30 min after iv injection", "value": "1.80 ± 0.11"}, {"measurement": "Ratio to Cerebellum: Striatum", "setting": "30 min after iv injection", "value": "2.06 ± 0.19"}, {"measurement": "Regional brain distribution: Cerebellum", "setting": "30 min after iv injection", "value": "0.37 ± 0.07", "unit": "% dose/g"}, {"measurement": "Regional brain distribution: Cortex", "setting": "30 min after iv injection", "value": "0.62 ± 0.07", "unit": "% dose/g"}, {"measurement": "Regional brain distribution: Hippocampus", "setting": "30 min after iv injection", "value": "0.70 ± 0.06", "unit": "% dose/g"}, {"measurement": "Regional brain distribution: Hypothalamus", "setting": "30 min after iv injection", "value": "0.85 ± 0.14", "unit": "% dose/g"}, {"measurement": "Regional brain distribution: Remainder", "setting": "30 min after iv injection", "value": "0.67 ± 0.09", "unit": "% dose/g"}, {"measurement": "Regional brain distribution: Striatum", "setting": "30 min after iv injection", "value": "0.76 ± 0.08", "unit": "% dose/g"}, {"measurement": "Organ distribution: Blood", "setting": "60 min after iv injection", "value": "4.65 ± 0.46", "unit": "% dose/organ"}, {"measurement": "Organ distribution: Bone", "setting": "60 min after iv injection", "value": "0.08 ± 0.02", "unit": "% dose/organ"}, {"measurement": "Organ distribution: Brain", "setting": "60 min after iv injection", "value": "0.69 ± 0.09", "unit": "% dose/organ"}, {"measurement": "Organ distribution: Heart", "setting": "60 min after iv injection", "value": "0.11 ± 0.01", "unit": "% dose/organ"}, {"measurement": "Organ distribution: Kidney", "setting": "60 min after iv injection", "value": "1.38 ± 0.25", "unit": "% dose/organ"}, {"measurement": "Organ distribution: Liver", "setting": "60 min after iv injection", "value": "10.30 ± 2.50", "unit": "% dose/organ"}, {"measurement": "Organ distribution: Lung", "setting": "60 min after iv injection", "value": "0.73 ± 0.08", "unit": "% dose/organ"}, {"measurement": "Organ distribution: Muscle", "setting": "60 min after iv injection", "value": "7.69 ± 0.29", "unit": "% dose/organ"}, {"measurement": "Organ distribution: Skin", "setting": "60 min after iv injection", "value": "5.97 ± 1.64", "unit": "% dose/organ"}, {"measurement": "Organ distribution: Spleen", "setting": "60 min after iv injection", "value": "0.13 ± 0.02", "unit": "% dose/organ"}, {"measurement": "Ratio to Cerebellum: Cerebellum", "setting": "60 min after iv injection", "value": "1.00 ± 0.00"}, {"measurement": "Ratio to Cerebellum: Cortex", "setting": "60 min after iv injection", "value": "2.10 ± 0.47"}, {"measurement": "Ratio to Cerebellum: Hippocampus", "setting": "60 min after iv injection", "value": "2.91 ± 0.64"}, {"measurement": "Ratio to Cerebellum: Hypothalamus", "setting": "60 min after iv injection", "value": "3.53 and 3.53 ± 0.33"}, {"measurement": "Ratio to Cerebellum: Remainder", "setting": "60 min after iv injection", "value": "2.56 ± 0.44"}, {"measurement": "Ratio to Cerebellum: Striatum", "setting": "60 min after iv injection", "value": "2.88 ± 0.52"}, {"measurement": "Regional brain distribution: Cerebellum", "setting": "60 min after iv injection", "value": "0.15 ± 0.03", "unit": "% dose/g"}, {"measurement": "Regional brain distribution: Cortex", "setting": "60 min after iv injection", "value": "0.33 ± 0.13", "unit": "% dose/g"}, {"measurement": "Regional brain distribution: Hippocampus", "setting": "60 min after iv injection", "value": "0.45 ± 0.13", "unit": "% dose/g"}, {"measurement": "Regional brain distribution: Hypothalamus", "setting": "60 min after iv injection", "value": "0.54 ± 0.13", "unit": "% dose/g"}, {"measurement": "Regional brain distribution: Remainder", "setting": "60 min after iv injection", "value": "0.39 ± 0.03", "unit": "% dose/g"}, {"measurement": "Regional brain distribution: Striatum", "setting": "60 min after iv injection", "value": "0.45 ± 0.14", "unit": "% dose/g"}, {"measurement": "Organ distribution: Blood", "setting": "120 min after iv injection", "value": "3.20 ± 0.57", "unit": "% dose/organ"}, {"measurement": "Organ distribution: Bone", "setting": "120 min after iv injection", "value": "0.28 ± 0.06", "unit": "% dose/organ"}, {"measurement": "Organ distribution: Brain", "setting": "120 min after iv injection", "value": "0.21 ± 0.03", "unit": "% dose/organ"}, {"measurement": "Organ distribution: Heart", "setting": "120 min after iv injection", "value": "0.06 ± 0.01", "unit": "% dose/organ"}, {"measurement": "Organ distribution: Kidney", "setting": "120 min after iv injection", "value": "0.78 ± 0.15", "unit": "% dose/organ"}, {"measurement": "Organ distribution: Liver", "setting": "120 min after iv injection", "value": "5.90 ± 1.03", "unit": "% dose/organ"}, {"measurement": "Organ distribution: Lung", "setting": "120 min after iv injection", "value": "0.32 ± 0.06", "unit": "% dose/organ"}, {"measurement": "Organ distribution: Muscle", "setting": "120 min after iv injection", "value": "4.02 ± 1.22", "unit": "% dose/organ"}, {"measurement": "Organ distribution: Skin", "setting": "120 min after iv injection", "value": "2.61 ± 0.17", "unit": "% dose/organ"}, {"measurement": "Organ distribution: Spleen", "setting": "120 min after iv injection", "value": "0.06 ± 0.02", "unit": "% dose/organ"}, {"measurement": "Ratio to Cerebellum: Cerebellum", "setting": "120 min after iv injection", "value": "1.00 ± 0.00"}, {"measurement": "Ratio to Cerebellum: Cortex", "setting": "120 min after iv injection", "value": "1.77 ± 0.04"}, {"measurement": "Ratio to Cerebellum: Hippocampus", "setting": "120 min after iv injection", "value": "2.67 ± 0.15"}, {"measurement": "Ratio to Cerebellum: Hypothalamus", "setting": "120 min after iv injection", "value": "3.23 ± 0.21"}, {"measurement": "Ratio to Cerebellum: Remainder", "setting": "120 min after iv injection", "value": "2.34 ± 0.09"}, {"measurement": "Ratio to Cerebellum: Striatum", "setting": "120 min after iv injection", "value": "2.97 ± 0.16"}, {"measurement": "Regional brain distribution: Cerebellum", "setting": "120 min after iv injection", "value": "0.05 ± 0.01", "unit": "% dose/g"}, {"measurement": "Regional brain distribution: Cortex", "setting": "120 min after iv injection", "value": "0.09 ± 0.01", "unit": "% dose/g"}, {"measurement": "Regional brain distribution: Hippocampus", "setting": "120 min after iv injection", "value": "0.14 ± 0.02", "unit": "% dose/g"}, {"measurement": "Regional brain distribution: Hypothalamus", "setting": "120 min after iv injection", "value": "0.17 ± 0.01", "unit": "% dose/g"}, {"measurement": "Regional brain distribution: Remainder", "setting": "120 min after iv injection", "value": "0.12 ± 0.01", "unit": "% dose/g"}, {"measurement": "Regional brain distribution: Striatum", "setting": "120 min after iv injection", "value": "0.15 ± 0.02", "unit": "% dose/g"}, {"measurement": "Organ distribution: Blood", "setting": "240 min after iv injection", "value": "2.33 ± 0.34", "unit": "% dose/organ"}, {"measurement": "Organ distribution: Bone", "setting": "240 min after iv injection", "value": "0.27 ± 0.07", "unit": "% dose/organ"}, {"measurement": "Organ distribution: Brain", "setting": "240 min after iv injection", "value": "0.06 ± 0.01", "unit": "% dose/organ"}, {"measurement": "Organ distribution: Heart", "setting": "240 min after iv injection", "value": "0.04 ± 0.01", "unit": "% dose/organ"}, {"measurement": "Organ distribution: Kidney", "setting": "240 min after iv injection", "value": "0.51 ± 0.07", "unit": "% dose/organ"}, {"measurement": "Organ distribution: Liver", "setting": "240 min after iv injection", "value": "3.55 ± 0.35", "unit": "% dose/organ"}, {"measurement": "Organ distribution: Lung", "setting": "240 min after iv injection", "value": "0.15 ± 0.02", "unit": "% dose/organ"}, {"measurement": "Organ distribution: Muscle", "setting": "240 min after iv injection", "value": "2.08 ± 0.05", "unit": "% dose/organ"}, {"measurement": "Organ distribution: Skin", "setting": "240 min after iv injection", "value": "1.53 ± 0.17", "unit": "% dose/organ"}, {"measurement": "Organ distribution: Spleen", "setting": "240 min after iv injection", "value": "0.03 ± 0.00", "unit": "% dose/organ"}, {"measurement": "Ratio to Cerebellum: Cerebellum", "setting": "240 min after iv injection", "value": "1.00 ± 0.00"}, {"measurement": "Ratio to Cerebellum: Cortex", "setting": "240 min after iv injection", "value": "1.52 ± 0.21"}, {"measurement": "Ratio to Cerebellum: Hippocampus", "setting": "240 min after iv injection", "value": "1.99 ± 0.23"}, {"measurement": "Ratio to Cerebellum: Hypothalamus", "setting": "240 min after iv injection", "value": "2.37 and 2.37 ± 0.23"}, {"measurement": "Ratio to Cerebellum: Remainder", "setting": "240 min after iv injection", "value": "1.58 ± 0.13"}, {"measurement": "Ratio to Cerebellum: Striatum", "setting": "240 min after iv injection", "value": "2.35 ± 0.05"}, {"measurement": "Regional brain distribution: Cerebellum", "setting": "240 min after iv injection", "value": "0.02 ± 0.00", "unit": "% dose/g"}, {"measurement": "Regional brain distribution: Cortex", "setting": "240 min after iv injection", "value": "0.03 ± 0.01", "unit": "% dose/g"}, {"measurement": "Regional brain distribution: Hippocampus", "setting": "240 min after iv injection", "value": "0.04 ± 0.01", "unit": "% dose/g"}, {"measurement": "Regional brain distribution: Hypothalamus", "setting": "240 min after iv injection", "value": "0.05 ± 0.00", "unit": "% dose/g"}, {"measurement": "Regional brain distribution: Remainder", "setting": "240 min after iv injection", "value": "0.03 ± 0.00", "unit": "% dose/g"}, {"measurement": "Regional brain distribution: Striatum", "setting": "240 min after iv injection", "value": "0.05 ± 0.00", "unit": "% dose/g"}, {"measurement": "Time of peak specific uptake in the hypothalamus region", "setting": "after injection", "value": "60 to 120", "unit": "min"}, {"measurement": "Initial brain uptake", "setting": "iv", "value": "1.71±0.45", "unit": "% dose/g"}]}]}
